One block for each molecule: values may come before it. Where a SMILES comes first, the peptide text is derived from it. Where no end group is shown, it is not given here. The star is where a group is joined. Biotin = O=C1N[C@H]2[C@H](CS[C@H]2CCCCC(=O)*)N1
Assays:
[1] = molecular target: T1, Human β-catenin (Homo sapiens, UniProt P35222); assay: Focal molography (FM) direct binding of β-catenin to immobilised TCO-TCF4(7–30), buffer; conditions: range over 3 sensors x 3 runs
T1 construct: Variant: β-catenin (human) (Hs134–670)+TCF4(Hs1–53); purchased Proteros Biostructures
T1 sequence (P35222 134-670): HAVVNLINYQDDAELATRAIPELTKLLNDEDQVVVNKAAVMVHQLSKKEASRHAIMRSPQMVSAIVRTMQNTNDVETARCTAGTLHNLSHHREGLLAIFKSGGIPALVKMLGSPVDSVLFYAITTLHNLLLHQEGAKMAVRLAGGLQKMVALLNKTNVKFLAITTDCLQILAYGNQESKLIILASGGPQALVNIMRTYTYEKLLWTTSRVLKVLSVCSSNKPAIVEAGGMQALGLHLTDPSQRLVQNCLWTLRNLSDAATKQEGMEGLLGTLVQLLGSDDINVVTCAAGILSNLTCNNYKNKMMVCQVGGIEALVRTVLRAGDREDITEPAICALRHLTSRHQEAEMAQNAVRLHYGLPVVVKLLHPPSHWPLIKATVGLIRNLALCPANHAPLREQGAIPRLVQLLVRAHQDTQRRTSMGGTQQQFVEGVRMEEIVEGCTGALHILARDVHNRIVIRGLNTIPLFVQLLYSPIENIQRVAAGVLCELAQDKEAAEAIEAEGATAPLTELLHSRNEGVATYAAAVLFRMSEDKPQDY
Procedure: (§1) FM experiments were conducted using a prototype FM reader from the “Fermi” generation developed by lino Biotech AG (Supplementary Figure 10 S1 File). The flow channel shape was hexagonal (Supplementary Figure 9 A&C S1 File) and the parallel region measured 12.0 x 1.9 x 0.1 mm. Only 18 molograms were recorded per measurement in order to save computing power for faster sampling rates of the intensities of the single molograms. Thus, the lower part of the double flow chamber was used. In all FM experiments, the same running buffer as in SPR was used. Samples in glass vials were injected from the autosampler (Alias, Spark Holland) and transferred with a syringe pump (Precision Syringe Drive/4, Hamilton) to the flow channel for 17 seconds at a flow rate of 400 µL/min (sample delivery step). […] During the association phase, the sample was passed through the flow chamber for one minute at a flow rate of 50 µL/min. To prevent the recording of the dilutive end of the sample, a fast flow rate of 500 µL/min was applied for two minutes to record the dissociation phase, followed by additional two minutes at a flow rate of 50 µL/min. For the regeneration, regeneration solution was injected from glass vials into the autosampler loop. The regeneration solution was passed through the flow chamber for three minutes at a flow rate of 100 µL/min.
(§2) A sensor chip of FM measured 9 x 18 mm. […]

[2] = molecular target: T1, Human β-catenin; assay: Focal molography (FM) direct binding of β-catenin to immobilised TCO-TCF4(7–30), RKO cell lysate; conditions: cell lysate 1 Mio cells/mL, range over sensors and runs
Procedure: as §1, §2

[3] = molecular target: T1, Human β-catenin; assay: SPR direct binding of β-catenin to immobilised biotinylated TCF4(7–30) in buffer; conditions: only one Hill slope
Procedure: (§3) For all SPR experiments, the running buffer consisting of 10 mM HEPES, 150 mM NaCl, 0.01% (v/v) P20, 1% (v/v) glycerol, 0.01% (v/v) BSA and 2% (v/v) DMSO at pH 7.4 was used. The TCF(7–30) peptide ([…]-K-biotin-amide) peptide was obtained from Biosyntan GmbH. Experiments were conducted at room temperature on a Biacore T200 (GE Healthcare, Uppsala, Sweden). The peptide was immobilized onto a Series S sensor chip SA (10352113, Cytiva, Uppsala, Sweden). Following the manufacturer’s protocol, the sensor was first prepared, and the peptide was injected at a concentration of 10 nM at a flow rate of 10 µL/min. Immobilization was achieved via biotin-streptavidin interaction to a level of 5, 25 and 50 RU in three different flow channels respectively. […] Binding analysis was monitored on all four flow channels with sample association time of one minute and dissociation time of four minutes at a flow rate of 50 µL/min. […]
(§4) The equilibrium dissociation constant (KD) and half maximal inhibitory concentration (IC50) were determined from binding signals collected in direct binding and competition experiments, respectively. […]
(§5) The SPR data was visualized and analyzed using GraphPad Prism 10.0.0 (Boston, Massachusetts USA, www.graphpad.com). For SPR analysis, signals recorded on the active surfaces were referenced with signals from the reference channel. […]

[4] = molecular target: T1, Human β-catenin; assay: SPR competition: free TCF4(7–51) with 250 nM β-catenin over immobilised TCF4(7–30), buffer; type: binding; conditions: buffer pH 7.4, 95% confidence interval of fit
Procedure: as §3, §4, §5

[5] = molecular target: T1, Human β-catenin; assay: Focal molography (FM) competition: free TCF4(7–51) with 250 nM β-catenin over TCF4(7–30) sensor, buffer; type: binding; conditions: range over 3 sensors x 3 runs
Procedure: as §1, §2

[6] = molecular target: T1, Human β-catenin; assay: Focal molography (FM) competition: free TCF4(7–51) with 250 nM β-catenin over TCF4(7–30) sensor, RKO cell lysate; type: binding; conditions: cell lysate 1 Mio cells/mL
Procedure: as §1
A sensor chip of FM measured 9 x 18 mm. The sensing area per mologram was 400 x 400 µm with 54 molograms (6 x 9 array) being present on one sensor chip. The center to center spacing of molograms in flow direction was 690 µm and 750 µm perpendicular to the flow. The sensors used in FM were manufactured and treated following published manufacturing protocols with the difference that the photoprotective PhSNPPOC group was replaced by a more hydrophilic PySNPPOC group. To activate the ridges using reactive immersion lithography, a phase mask was placed on the surface with a layer of 0.1% (v/v) hydroxyl amine in DMSO applied in between the mask and the sensor surface. The chip was exposed at 405 nm at a dose of 4000 mJ/cm^2 with a custom-built setup. Following exposure, the chip was incubated in 1 mM methyltetrazine-4-polyethyleneglycol-N-Hydroxysuccinimide (MeTz-PEG4-NHS) dissolved in HBST (10 mM HEPES, 150 mM NaCl, 0.05% (v/v) Tween20, pH 8.0) for 1 hour. After incubation, the chip was washed sequentially with 50:50 H2O/DMSO, DMSO, Isopropanol and H2O. Next, the entire chip surface, including the grooves, was activated by flood illumination with a dose of 18 J/cm^2. The chip was washed sequentially with 50:50 MQ H2O/DMSO, DMSO, Isopropanol and MQ H2O. As a final step, the chip was incubated with 10 mM tetrazine (Tz)-PEG5-NHS in HBST (10 mM HEPES, 150 mM NaCl, 0.05% (v/v) Tween20, pH 8.0) for 1 hour and washed with isopropanol and H2O. […]

[7] = molecular target: T2, beta-catenin (Homo sapiens, UniProt P35222); assay: SPR
T2 chain: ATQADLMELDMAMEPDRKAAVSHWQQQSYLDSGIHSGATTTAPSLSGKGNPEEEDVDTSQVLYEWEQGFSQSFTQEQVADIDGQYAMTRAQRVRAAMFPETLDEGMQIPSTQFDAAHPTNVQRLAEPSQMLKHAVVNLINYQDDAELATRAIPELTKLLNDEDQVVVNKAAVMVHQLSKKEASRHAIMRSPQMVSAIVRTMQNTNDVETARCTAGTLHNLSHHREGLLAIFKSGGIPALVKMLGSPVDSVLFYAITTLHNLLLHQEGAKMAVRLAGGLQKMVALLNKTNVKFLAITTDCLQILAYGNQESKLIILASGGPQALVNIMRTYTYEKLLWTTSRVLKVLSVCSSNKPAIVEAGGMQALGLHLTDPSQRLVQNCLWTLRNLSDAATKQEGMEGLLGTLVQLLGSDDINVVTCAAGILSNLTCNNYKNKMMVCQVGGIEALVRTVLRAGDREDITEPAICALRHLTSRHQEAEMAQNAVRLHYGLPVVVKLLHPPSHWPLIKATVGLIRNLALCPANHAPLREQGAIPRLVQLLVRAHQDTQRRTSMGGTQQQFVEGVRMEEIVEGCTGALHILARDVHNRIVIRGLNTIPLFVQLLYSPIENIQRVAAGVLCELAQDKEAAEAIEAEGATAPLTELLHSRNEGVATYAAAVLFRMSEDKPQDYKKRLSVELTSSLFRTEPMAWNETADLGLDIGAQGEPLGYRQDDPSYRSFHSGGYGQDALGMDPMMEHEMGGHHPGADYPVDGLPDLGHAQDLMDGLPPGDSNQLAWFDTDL

- Kd [1]: 68 to 160 nM
- Kd [2]: 100 to 140 nM
Molecule: CC[C@H](C)[C@H](NC(=O)[C@H](CC(C)C)NC(=O)[C@H](CCC(=O)O)NC(=O)[C@H](CC(=O)O)NC(=O)[C@H](CC(N)=O)NC(=O)[C@H](C)NC(=O)CNC(=O)[C@H](CC(C)C)NC(=O)[C@H](CC(=O)O)NC(=O)[C@H](CC(=O)O)NC(=O)CNC(=O)CNC(=O)CN)C(=O)N[C@@H](CO)C(=O)N[C@@H](Cc1ccccc1)C(=O)N[C@@H](CCCCN)C(=O)N[C@@H](CC(=O)O)C(=O)N[C@@H](CCC(=O)O)C(=O)NCC(=O)N[C@@H](CCC(=O)O)C(=O)N[C@@H](CCC(N)=O)C(=O)N[C@@H](CCC(=O)O)C(=O)N[C@@H](CCC(=O)O)C(=O)N[C@@H](CCCCN)C(=O)O [TCF4(7–30)] (H-GGGDDLGANDELISFKDEGEQEEK-OH)

- Hill slope of the dose-response [3]: 1.21
Molecule: CC[C@H](C)[C@H](NC(=O)[C@H](CC(C)C)NC(=O)[C@H](CCC(=O)O)NC(=O)[C@H](CC(=O)O)NC(=O)[C@H](CC(N)=O)NC(=O)[C@H](C)NC(=O)CNC(=O)[C@H](CC(C)C)NC(=O)[C@H](CC(=O)O)NC(=O)[C@H](CC(=O)O)NC(=O)CNC(=O)CNC(=O)CN)C(=O)N[C@@H](CO)C(=O)N[C@@H](Cc1ccccc1)C(=O)N[C@@H](CCCCN)C(=O)N[C@@H](CC(=O)O)C(=O)N[C@@H](CCC(=O)O)C(=O)NCC(=O)N[C@@H](CCC(=O)O)C(=O)N[C@@H](CCC(N)=O)C(=O)N[C@@H](CCC(=O)O)C(=O)N[C@@H](CCC(=O)O)C(=O)N[C@@H](CCCCN)C(=O)N[C@@H](CCCCNC(=O)CCCC[C@@H]1SC[C@@H]2NC(=O)N[C@@H]21)C(N)=O [biotinylated TCF4(7–30)] (H-GGGDDLGANDELISFKDEGEQEEKK(Biotin)-NH2; N-terminus assumed)

- IC50 [4]: 95 to 115 nM
- IC50 [5]: 110 to 200 nM
- IC50 ([6]; Sensor 1, average of three runs, SD, read-out: IC50, Average ± SD): 170 nM
- IC50 ([6]; Sensor 2, average of three runs, SD, read-out: IC50, Average ± SD): 160 nM
- IC50 ([6]; Sensor 3, average of three runs, SD, read-out: IC50, Average ± SD): 140 nM
- IC50 ([6]; range over sensors and runs, read-out: IC50): 140 to 170 nM
Molecule: GGGDDLGANDELISFKDEGEQEEKSSENSSAERDLADVKSSLVNE [TCF4(7–51)]

- Kd [7]: ~108 nM
B1: TCF4 peptide TCF(7-51) 7-51 (peptide)
chain: GGGDDLGANDELISFKDEGEQEEKSSENSSAERDLADVKSSLVNE
